Read-outs that look alike come from different tables or passages of the source.
Test system: ADP-induced human platelet aggregation
Experiment: Inhibition of ADP-mediated platelet aggregation in vitro using platelet-rich plasma (PRP assay)
Format: cell-based
Settings: 5 min, read-out: Activity in the PRP assay
Experimental: This Example Provides an Assay for the Inhibition of ADP-Mediated Platelet Aggregation In Vitro Using Platelet-Rich Plasma (PRP)
Platelet-rich plasma (PRP) is prepared by centrifugation at 160×g for 20 minutes at room temperature. PRP is collected, and the platelet concentration is determined using a Coulter counter or hemocytometer (platelet concentration should be 2-4×10^8 platelets per mL).
Inhibition of ADP-dependent aggregation is preferably determined in 96-well flat-bottom microtiter plates using a microtiter plate shaker and plate reader similar to the procedure described by Frantantoni et al., Am. J. Clin. Pathol. […] All steps are performed at room temperature. The total reaction volume of 0.2 mL/well includes: PRP (˜6×10^7 total platelets in the presence of plasma), serial dilutions of test compounds (buffer for control wells) in 0.6% DMSO. After about 5 minutes preincubation at room temperature, ADP is added to a final concentration of 2 μM which induces submaximal aggregation. Buffer is added instead of ADP to one set of control wells (ADP-control). The OD of the samples is then determined at 650 nm using a microtiter plate reader (Softmax, Molecular Devices, Menlo Park, Calif.) resulting in the 0 minute reading. The plates are then agitated for 5 min on a microtiter plate shaker and the 5 minute reading is obtained in the plate reader. Aggregation is calculated from the decrease of OD at 650 nm at t=5 minutes compared to t=0 minutes and is expressed as % of the decrease in the ADP control samples after correcting for changes in the unaggregated control samples.

[1] = human platelet-rich plasma, 2 μM ADP, 96-well microtiter, OD 650 nm at 5 min

Row | Compound | IC50 [1] [µM] | IC50 (Homo sapiens, Platelet) [µM]
1 | CNc1cc2ccn(-c3ccc(NC(=O)NS(=O)(=O)c4ccc(Cl)s4)cc3)c(=O)c2cc1F [Example 10, 5-chloro-N-[({4-[7-fluoro-6-(methylamino)-1-oxoisoquinolin-2(1H)-yl]phenyl}amino)carbonyl]thiophene-2-sulfonamide] | < 10 | 
2 | O=C(Nc1ccc(-n2ccc3cc(NC4CC4)c(F)cc3c2=O)cc1)NS(=O)(=O)c1ccc(Cl)s1 [Example 13, 5-chloro-N-[({4-[6-(cyclopropylamino)-7-fluoro-1-oxoisoquinolin-2(1H)-yl]phenyl}amino)carbonyl]thiophene-2-sulfonamide] | 10 to 30 | 
3 | O=CNc1cc2ccn(-c3ccc(NC(=O)NS(=O)(=O)c4ccc(Cl)s4)cc3)c(=O)c2cc1F [Example 14, 5-chloro-N-[({4-[7-fluoro-6-(formylamino)-1-oxoisoquinolin-2(1H)-yl]phenyl}amino)carbonyl]thiophene-2-sulfonamide] | > 30 | 
4 | CCNc1cc2ccn(-c3ccc(NC(=O)NS(=O)(=O)c4ccc(Cl)s4)cc3)c(=O)c2cc1F [Example 19, 5-chloro-N-[({4-[6-(ethylamino)-7-fluoro-1-oxoisoquinolin-2(1H)-yl]phenyl}amino)carbonyl]thiophene-2-sulfonamide] |  | < 10
5 | O=C(Nc1ccc(-n2ccc3cc(NCCF)c(F)cc3c2=O)cc1)NS(=O)(=O)c1ccc(Cl)s1 [Example 20, 5-chloro-N-[({4-[7-fluoro-6-[(2-fluoroethyl)amino]-1-oxoisoquinolin-2(1H)-yl]phenyl}amino)carbonyl]thiophene-2-sulfonamide] | < 10 | 
6 | O=C(Nc1ccc(-n2ccc3cc(NCC(F)(F)F)c(F)cc3c2=O)cc1)NS(=O)(=O)c1ccc(Cl)s1 [Example 21, 5-chloro-N-[({4-[7-fluoro-1-oxo-6-[(2,2,2-trifluoroethyl)amino]isoquinolin-2(1H)-yl]phenyl}amino)carbonyl]thiophene-2-sulfonamide] | 10 to 30 | 
7 | C#CCNc1cc2ccn(-c3ccc(NC(=O)NS(=O)(=O)c4ccc(Cl)s4)cc3)c(=O)c2cc1F [Example 22, 5-chloro-N-[({4-[7-fluoro-1-oxo-6-(prop-2-ynylamino)isoquinolin-2(1H)-yl]phenyl}amino)carbonyl]thiophene-2-sulfonamide] | < 10 | 
8 | O=C(Nc1ccc(-n2ccc3cc(NCc4ccc(Cl)cc4)c(F)cc3c2=O)cc1)NS(=O)(=O)c1ccc(Cl)s1 [Example 23, 5-chloro-N-[({4-[6-[(4-chlorobenzyl)amino]-7-fluoro-1-oxoisoquinolin-2(1H)-yl]phenyl}amino)carbonyl]thiophene-2-sulfonamide] | < 10 | 
9 | CN(C)c1cc2ccn(-c3ccc(NC(=O)NS(=O)(=O)c4ccc(Cl)s4)cc3)c(=O)c2cc1F [Example 26, 5-chloro-N-[({4-[6-(dimethylamino)-7-fluoro-1-oxoisoquinolin-2(1H)-yl]phenyl}amino)carbonyl]thiophene-2-sulfonamide] | > 30 | 
10 | CNc1cc2ccn(-c3ccc(NC(=O)NS(=O)(=O)c4cccs4)cc3)c(=O)c2cc1F [Example 27, N-[({4-[7-fluoro-6-(methylamino)-1-oxoisoquinolin-2(1H)-yl]phenyl}amino)carbonyl]thiophene-2-sulfonamide] | < 10 | 
11 | CNc1cc2ccn(-c3ccc(NC(=O)NS(=O)(=O)c4ccc(Br)s4)cc3)c(=O)c2cc1F [Example 28, 5-bromo-N-[({4-[7-fluoro-6-(methylamino)-1-oxoisoquinolin-2(1H)-yl]phenyl}amino)carbonyl]thiophene-2-sulfonamide] | < 10 | 
12 | CNc1cc2ccn(-c3ccc(NC(=O)NS(=O)(=O)c4ccc(C)s4)cc3)c(=O)c2cc1F [Example 29] | < 10 | 
13 | CCc1ccc(S(=O)(=O)NC(=O)Nc2ccc(-n3ccc4cc(NC)c(F)cc4c3=O)cc2)s1 [Example 30] | < 10 | 
14 | CCCc1ccc(S(=O)(=O)NC(=O)Nc2ccc(-n3ccc4cc(NC)c(F)cc4c3=O)cc2)s1 [Example 31] | 10 to 30 | 
15 | CNc1cc2ccn(-c3ccc(NC(=O)NS(=O)(=O)c4ccc(C(F)F)s4)cc3)c(=O)c2cc1F [Example 32] | < 10 | 
16 | CNc1cc2ccn(-c3ccc(NC(=O)NS(=O)(=O)c4ccc(C#N)s4)cc3)c(=O)c2cc1F [Example 33] | 10 to 30 | 
17 | CNc1cc2ccn(-c3ccc(NC(=O)NS(=O)(=O)c4ccc(OC)s4)cc3)c(=O)c2cc1F [Example 34] | < 10 | 
18 | C#Cc1ccc(S(=O)(=O)NC(=O)Nc2ccc(-n3ccc4cc(NC)c(F)cc4c3=O)cc2)s1 [Example 35] | < 10 | 

Row | Compound | IC50 [1] [µM] | IC50 (Homo sapiens, Platelet) [µM]
19 | CNc1cc2ccn(-c3ccc(NC(=O)NS(=O)(=O)c4cc(Cl)cs4)cc3)c(=O)c2cc1F [Example 37] | < 10 | 
20 | CNc1cc2ccn(-c3ccc(NC(=O)NS(=O)(=O)c4cc(C)cs4)cc3)c(=O)c2cc1F [Example 38] | < 10 | 
21 | CNc1cc2ccn(-c3ccc(NC(=O)NS(=O)(=O)c4cc(C(F)F)cs4)cc3)c(=O)c2cc1F [Example 39] | 10 to 30 | 
22 | CNc1cc2ccn(-c3ccc(NC(=O)NS(=O)(=O)c4sccc4Cl)cc3)c(=O)c2cc1F [Example 40] | > 30 | 
23 | CNc1cc2ccn(-c3ccc(NC(=O)NS(=O)(=O)c4sccc4C)cc3)c(=O)c2cc1F [Example 41] | 10 to 30 | 
24 | CNc1cc2ccn(-c3ccc(NC(=O)NS(=O)(=O)c4ccccc4)cc3)c(=O)c2cc1F [Example 42] | < 10 | 
25 | CNc1cc2ccn(-c3ccc(NC(=O)NS(=O)(=O)c4ccc(Cl)s4)cc3F)c(=O)c2cc1F [Example 49, 5-chloro-N-[({3-fluoro-4-[7-fluoro-6-(methylamino)-1-oxoisoquinolin-2(1H)-yl]phenyl}amino)carbonyl]thiophene-2-sulfonamide] | < 10 | 
26 | CNc1cc2ccn(-c3ccc(NC(=O)NS(=O)(=O)c4ccc(Cl)s4)cc3Cl)c(=O)c2cc1F [Example 50, 5-chloro-N-[({3-chloro-4-[7-fluoro-6-(methylamino)-1-oxoisoquinolin-2(1H)-yl]phenyl}amino)carbonyl]thiophene-2-sulfonamide] | < 10 | 
27 | CNc1cc2ccn(-c3ccc(NC(=O)NS(=O)(=O)c4ccc(Cl)s4)cc3Br)c(=O)c2cc1F [Example 51, N-[({3-bromo-4-[7-fluoro-6-(methylamino)-1-oxoisoquinolin-2(1H)-yl]phenyl}amino)carbonyl]-5-chlorothiophene-2-sulfonamide] | < 10 | 
28 | CNc1cc2ccn(-c3ccc(NC(=O)NS(=O)(=O)c4ccc(Cl)s4)cc3C)c(=O)c2cc1F [Example 52, 5-chloro-N-[({4-[7-fluoro-6-(methylamino)-1-oxoisoquinolin-2(1H)-yl]-3-methylphenyl}amino)carbonyl]thiophene-2-sulfonamide] | < 10 | 
29 | CNc1cc2ccn(-c3ccc(NC(=O)NS(=O)(=O)c4ccc(Cl)s4)c(C)c3)c(=O)c2cc1F [Example 53, 5-chloro-N-[({4-[7-fluoro-6-(methylamino)-1-oxoisoquinolin-2(1H)-yl]-2-methylphenyl}amino)carbonyl]thiophene-2-sulfonamide] | < 10 | 
30 | CNc1cc2ccn(-c3ccc(NC(=O)NS(=O)(=O)c4ccc(Cl)s4)cn3)c(=O)c2cc1F [Example 54, 5-chloro-N-[({6-[7-fluoro-6-(methylamino)-1-oxoisoquinolin-2(1H)-yl]pyridin-3-yl}amino)carbonyl]thiophene-2-sulfonamide] | < 10 | 
31 | CNc1cc2ccn(-c3ccc(NC(=O)NS(=O)(=O)c4ccc(Cl)s4)c(C)n3)c(=O)c2cc1F [Example 55, 5-chloro-N-[({6-[7-fluoro-6-(methylamino)-1-oxoisoquinolin-2(1H)-yl]-2-methylpyridin-3-yl}amino)carbonyl]thiophene-2-sulfonamide] | < 10 | 
32 | CNc1cc2ccn(-c3cc(C)c(NC(=O)NS(=O)(=O)c4ccc(Cl)s4)cn3)c(=O)c2cc1F [Example 56, 5-chloro-N-[({6-[7-fluoro-6-(methylamino)-1-oxoisoquinolin-2(1H)-yl]-4-methylpyridin-3-yl}amino)carbonyl]thiophene-2-sulfonamide] | < 10 | 
33 | CNc1cc2ccn(-c3ncc(NC(=O)NS(=O)(=O)c4ccc(Cl)s4)cc3C)c(=O)c2cc1F [Example 57, 5-chloro-N-[({6-[7-fluoro-6-(methylamino)-1-oxoisoquinolin-2(1H)-yl]-5-methylpyridin-3-yl}amino)carbonyl]thiophene-2-sulfonamide] | > 30 | 
34 | CNc1cc2ccn(-c3ccc(NC(=O)NS(=O)(=O)c4ccc(Cl)s4)c(F)c3)c(=O)c2cc1F [Example 58, 5-chloro-N-[({2-fluoro-4-[7-fluoro-6-(methylamino)-1-oxoisoquinolin-2(1H)-yl]phenyl}amino)carbonyl]thiophene-2-sulfonamide] | < 10 | 
35 | CNc1cc2ccn(-c3ccc(NC(=O)NS(=O)(=O)c4ccc(Cl)s4)nc3)c(=O)c2cc1F [Example 59, 5-chloro-N-[({5-[7-fluoro-6-(methylamino)-1-oxoisoquinolin-2(1H)-yl]pyridin-2-yl}amino)carbonyl]thiophene-2-sulfonamide] | < 10 | 

Reference: US7294635B2 (Portola Pharmaceuticals, Inc., priority 2003, dated 2007)
